Tests used:
LNCaP = experiment: Antiproliferative activity against human LNCaP cells assessed as reduction in cell viability by CellTitre-Glo assay; assay type: functional, cell-based
[1] = biological target: Protein cereblon/Histone acetyltransferase p300 (Homo sapiens) (UniProt Q09472+Q96SW2); experiment: Protac activity at E3 ubiquitin ligase/P300 in human LNcaP cells assessed as degradation of P300 at 10 nM by immunoblotting analysis relative to control; assay type: cell-based
Chain of Protein cereblon/Histone acetyltransferase p300 (Homo sapiens) (Q09472 2-2414 limits assumed): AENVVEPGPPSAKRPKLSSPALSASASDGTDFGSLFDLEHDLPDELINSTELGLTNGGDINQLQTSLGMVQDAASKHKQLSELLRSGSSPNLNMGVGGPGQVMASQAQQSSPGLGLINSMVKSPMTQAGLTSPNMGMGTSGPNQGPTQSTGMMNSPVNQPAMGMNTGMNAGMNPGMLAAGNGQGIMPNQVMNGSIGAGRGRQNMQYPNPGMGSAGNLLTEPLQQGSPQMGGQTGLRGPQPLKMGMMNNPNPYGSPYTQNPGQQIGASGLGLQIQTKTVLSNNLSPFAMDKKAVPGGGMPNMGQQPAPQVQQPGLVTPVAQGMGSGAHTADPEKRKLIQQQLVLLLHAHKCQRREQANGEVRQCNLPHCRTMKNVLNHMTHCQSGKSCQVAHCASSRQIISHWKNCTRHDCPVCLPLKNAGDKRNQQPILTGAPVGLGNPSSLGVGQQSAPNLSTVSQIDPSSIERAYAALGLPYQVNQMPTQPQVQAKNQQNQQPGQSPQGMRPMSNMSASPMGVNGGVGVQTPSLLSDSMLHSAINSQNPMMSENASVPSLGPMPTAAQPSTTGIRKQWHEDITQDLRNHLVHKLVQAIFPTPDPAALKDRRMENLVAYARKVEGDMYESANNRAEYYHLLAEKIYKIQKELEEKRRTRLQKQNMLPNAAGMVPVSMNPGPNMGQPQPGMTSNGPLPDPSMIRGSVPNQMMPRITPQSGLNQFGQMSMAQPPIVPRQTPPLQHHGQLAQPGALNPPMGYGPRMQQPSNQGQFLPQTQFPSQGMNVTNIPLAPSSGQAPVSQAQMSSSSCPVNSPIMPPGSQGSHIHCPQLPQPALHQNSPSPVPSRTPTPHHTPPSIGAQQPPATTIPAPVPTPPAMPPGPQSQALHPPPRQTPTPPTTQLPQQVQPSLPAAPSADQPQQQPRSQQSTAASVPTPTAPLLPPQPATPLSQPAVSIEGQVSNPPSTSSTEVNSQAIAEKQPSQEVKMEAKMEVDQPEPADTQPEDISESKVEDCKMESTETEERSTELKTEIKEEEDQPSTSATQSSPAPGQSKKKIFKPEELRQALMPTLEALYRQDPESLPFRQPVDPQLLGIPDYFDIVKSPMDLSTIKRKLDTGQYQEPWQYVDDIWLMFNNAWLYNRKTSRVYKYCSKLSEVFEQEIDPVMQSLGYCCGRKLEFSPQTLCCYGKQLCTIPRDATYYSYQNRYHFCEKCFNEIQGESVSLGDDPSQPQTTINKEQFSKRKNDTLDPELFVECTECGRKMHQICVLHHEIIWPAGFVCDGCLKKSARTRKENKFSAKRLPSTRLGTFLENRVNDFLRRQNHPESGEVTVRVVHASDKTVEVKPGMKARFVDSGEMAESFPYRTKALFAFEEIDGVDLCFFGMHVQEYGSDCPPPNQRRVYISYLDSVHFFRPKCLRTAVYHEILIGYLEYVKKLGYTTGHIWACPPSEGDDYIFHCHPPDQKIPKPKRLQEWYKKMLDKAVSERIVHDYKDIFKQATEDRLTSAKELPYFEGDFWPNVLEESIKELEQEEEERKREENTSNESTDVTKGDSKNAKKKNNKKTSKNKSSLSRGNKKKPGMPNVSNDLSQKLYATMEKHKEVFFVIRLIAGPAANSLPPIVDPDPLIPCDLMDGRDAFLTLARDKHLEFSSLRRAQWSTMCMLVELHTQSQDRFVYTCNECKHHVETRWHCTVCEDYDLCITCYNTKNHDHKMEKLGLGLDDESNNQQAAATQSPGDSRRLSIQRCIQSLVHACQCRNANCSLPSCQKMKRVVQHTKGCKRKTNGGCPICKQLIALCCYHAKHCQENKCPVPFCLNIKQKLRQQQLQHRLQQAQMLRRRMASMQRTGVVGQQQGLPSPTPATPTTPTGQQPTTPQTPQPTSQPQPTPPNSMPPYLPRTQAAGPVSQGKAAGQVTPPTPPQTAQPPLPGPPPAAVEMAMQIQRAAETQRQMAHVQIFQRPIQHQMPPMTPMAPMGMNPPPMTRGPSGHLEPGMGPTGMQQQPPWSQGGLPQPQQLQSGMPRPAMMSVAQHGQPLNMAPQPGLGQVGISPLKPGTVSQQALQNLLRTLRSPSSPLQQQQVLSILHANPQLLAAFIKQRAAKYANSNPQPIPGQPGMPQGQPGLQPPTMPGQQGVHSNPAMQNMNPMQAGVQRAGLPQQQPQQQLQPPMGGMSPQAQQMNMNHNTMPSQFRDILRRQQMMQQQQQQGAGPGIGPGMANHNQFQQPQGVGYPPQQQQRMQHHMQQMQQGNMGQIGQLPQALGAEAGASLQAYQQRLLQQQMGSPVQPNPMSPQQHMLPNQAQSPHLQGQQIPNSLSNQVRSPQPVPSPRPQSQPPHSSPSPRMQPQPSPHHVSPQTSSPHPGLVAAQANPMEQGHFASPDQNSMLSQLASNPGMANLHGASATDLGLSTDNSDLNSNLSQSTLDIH
Chain of Protein cereblon/Histone acetyltransferase p300 (Homo sapiens) (Q96SW2 whole entry partner): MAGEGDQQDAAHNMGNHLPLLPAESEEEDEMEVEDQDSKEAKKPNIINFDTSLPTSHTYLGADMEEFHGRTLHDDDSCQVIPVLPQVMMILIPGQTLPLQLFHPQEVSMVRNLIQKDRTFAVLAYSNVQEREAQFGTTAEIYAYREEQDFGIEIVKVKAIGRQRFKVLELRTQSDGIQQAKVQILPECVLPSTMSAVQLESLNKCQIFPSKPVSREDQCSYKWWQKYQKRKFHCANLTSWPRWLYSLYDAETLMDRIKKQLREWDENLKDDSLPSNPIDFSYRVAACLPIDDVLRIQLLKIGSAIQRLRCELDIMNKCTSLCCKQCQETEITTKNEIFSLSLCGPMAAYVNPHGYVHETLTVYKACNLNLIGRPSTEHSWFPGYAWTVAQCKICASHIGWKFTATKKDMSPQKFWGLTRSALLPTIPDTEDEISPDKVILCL

Structure (SMILES) | IC50 (LNCaP) | Activity [1]
CNC(=O)N1CCc2c(c(N3CCCc4cc(-c5cnn(C)c5)c(C(F)F)cc43)nn2C2CCN(C(=O)CCCCCn3c(=O)n(C4CCC(=O)NC4=O)c4ccccc43)CC2)C1 (centres undefined) | 900 pM | > 80%
CNC(=O)N1CCc2c(c(N3CCCc4cc(-c5cnn(C)c5)c(C(F)F)cc43)nn2C2CCN(C(=O)CCCCCCCNc3cccc4c3C(=O)N(C3CCC(=O)NC3=O)C4=O)CC2)C1 (centres undefined) | 800 pM | > 80%
CC(=O)N1CCc2c(c(N3CCCc4cc(-c5cnn(C)c5)c(C(F)F)cc43)nn2C2CCN(C(=O)CN3CCC(CCc4cccc5c4n(C)c(=O)n5C4CCC(=O)NC4=O)CC3)CC2)C1 (centres undefined) | 33100 pM | < 20%
CC(=O)N1CCc2c(c(N3CCCc4cc(-c5cnn(C)c5)c(C(F)F)cc43)nn2C2CCN(C(=O)CCCCCNc3cccc4c3C(=O)N(C3CCC(=O)NC3=O)C4=O)CC2)C1 (centres undefined) | 44500 pM | < 50%
CC(=O)N1CCc2c(c(N3CCCc4cc(-c5cnn(C)c5)c(C(F)F)cc43)nn2C2CCN(CCN3CCN(C#Cc4ccc5c(c4)n(C)c(=O)n5C4CCC(=O)NC4=O)CC3)CC2)C1 (centres undefined) | 100 pM | > 80%
CC(=O)N1CCc2c(c(N3CCCc4cc(-c5cnn(C)c5)c(C(F)F)cc43)nn2C2CCN(CCN3CCOC(CNc4cccc5c4C(=O)N(C4CCC(=O)NC4=O)C5=O)C3)CC2)C1 (centres undefined) | 100 pM | > 80%
CC(=O)N1CCc2c(c(N3CCCc4cc(-c5cnn(C)c5)c(C(F)F)cc43)nn2C2CCN(C(=O)CCCCCCCNc3cccc4c3C(=O)N(C3CCC(=O)NC3=O)C4=O)CC2)C1 (centres undefined) | 700 pM | > 80%
CC(=O)N1CCc2c(c(N3CCCc4cc(-c5cnn(C)c5)c(C(F)F)cc43)nn2C2CCN(CCN3CCC(CCc4cccc5c4n(C)c(=O)n5C4CCC(=O)NC4=O)CC3)CC2)C1 (centres undefined) | 100 pM | > 80%
CC(=O)N1CCc2c(c(N3CCCc4cc(-c5cnn(C)c5)c(C(F)F)cc43)nn2C2CCN(C(=O)CCCN3CCN(Cc4ccc5c(c4)n(C)c(=O)n5C4CCC(=O)NC4=O)CC3)CC2)C1 (centres undefined) | 300 pM | > 80%
CC(=O)N1CCc2c(c(N3CCCc4cc(-c5cnn(C)c5)c(C(F)F)cc43)nn2C2CCN(CCCC3CCN(c4cccc5c4C(=O)N(C4CCC(=O)NC4=O)C5=O)CC3)CC2)C1 (centres undefined) | 800 pM | > 80%
CC(=O)N1CCc2c(c(N3CCCc4cc(-c5cnn(C)c5)c(C(F)F)cc43)nn2C2CCN(CCN3CCC(CCc4ccc5c(c4)n(C)c(=O)n5C4CCC(=O)NC4=O)CC3)CC2)C1 (centres undefined) | 300 pM | > 80%
CNC(=O)N1CCc2c(c(N3CCCc4cc(-c5cnn(C)c5)c(C(F)F)cc43)nn2C2CCN(C(=O)CCCCCNc3cccc4c3C(=O)N(C3CCC(=O)NC3=O)C4=O)CC2)C1 (centres undefined) | 400 pM | > 80%

— ChEMBL document CHEMBL5126617, “Application of Degradation of Cyclic-AMP Response Element Binding Protein for the Potential Treatment of Cancer” (ACS Med Chem Lett, 2022)
